In US20120004160A1, “METHODS FOR IDENTIFYING AND COMPOUNDS USEFUL FOR THE DIAGNOSIS AND TREATMENT OF DISEASES INVOLVING INFLAMMATION” (Glaxo Group Ltd., priority 2009, published 2012) one finds IL-10 sparing data, which are given here for eleven substances.

In the data set the test system is human primary macrophages. The experiment in a line: IL-10 release measured in the same supernatant (additional cytokine measurements). Format: cell-based. The following applies: effect of Ad-shRNA on IL-10 release; supernatant of on-target assay, macrophages triggered with IgG-coated beads; symbols not defined. How it is done: 20 μL of supernatant was used in a TNFα readout assay (Meso Scale Discovery, (MSD), Gaithersburg, Md.). The measurements were performed according to manufacturer's instructions. 20 μL of sample solution were transferred by Tecan384 head on a Tecan freedom station to wells of a 384 well TNFα MSD readout plate(Meso Scale Discovery Catalog #K211BHB-6). A calibrator curve using calibrator from MSD was created using a multichannel pipette. The calibrator curve typically started at 10 ng/mL followed by 6 steps of a 3-fold dilution with a final volume of 10 μL. Plates were sealed and incubated for 2 hours on a shaking platform (set at ˜100 rounds per minute) at room temperature. Detection antibody (1.0 μg/mL) was added to the wells (10 μL for the calibrator and 20 μL for the samples) using a repetitive multichannel. Plates were sealed and incubated overnight at room temperature on a shaking platform (set at ˜100 rounds per minute). The plates were washed 3 times with PBS+0.05% Tween-20 using a Tecan washer (TECAN type, PW384). 35 μl of 2× Read Buffer T was added to each well using a multidrop. After addition of Read Buffer, the plates were read on an MSD SI6000 reader.
For the measurements of additional cytokines, such as IL-10, the supernatants were transferred using the TECAN Freedom with a TEMO-384 head. The cytokines were measured using 384 well plates purchased at Meso Scale Discovery and the methodology used is the same as described in Example 5. Hits were prioritized based on effects on IL-10 release.
In an shRNA screen there is the possibility that the observed effects are due to off-target effects: the shRNA knock down construct has an effect on expression of a different mRNA than the intended mRNA. To exclude possible off-target effects by the knockdown constructs the following “on-target” analysis was followed. For each target, the original Ad-shRNA plus 5 extra Ad-shRNA constructs against the same target were tested in the primary screening assay. If at least two independent shRNA sequences (including original confirmed drug targetAd-shRNA) give the same effect in one donor, the probability this is due to off target shRNA effects is negligible and the effect is declared “on-target”. For the on-target assay, the methods similar to the screen and rescreen were used as described in Examples 5 and 6. The TNFα release assay was performed as per Rescreen (see Example 6) except that the negative control viruses (Luc_v13) were repropagated alongside the on-target viruses. In total, 40 targets were taken along in the on-target assay, and for 15 targets multiple shRNA came up as a hit. In addition, IL-10 release was measured in the same supernatant as described in Examples 5 and 7. Table 3 indicates the effects of the shRNAs on the IL-10 release.
Regarding “AGACATGGATGGGAAAGAC: Ad-shRNA knock-down construct, KD target sequence against CBR3 (the letters are possibly those of the target site)”, the IL-10 sparing result is reported as “✓”.

Turning to “ATGACCCTACAGGTTTACC: Ad-shRNA knock-down construct, KD target sequence against NEK10”, the IL-10 sparing result was “✓”.

In the case of “CATACTGGAGCCTGTAACC: Ad-shRNA knock-down construct, KD target sequence against TNFRSF10C”, the IL-10 sparing result is “✓”.

Take “CCAATGGTTACATGGCTCC: Ad-shRNA knock-down construct, KD target sequence against GRK7”: the IL-10 sparing entry is on record as “✓”.

Take “CTCAGGAAGGTCTTTCCAC: Ad-shRNA knock-down construct, KD target sequence against SNF1LK”: the IL-10 sparing entry is given as “✓”.

For “CTTGTGCGATGCTTTGAAC: Ad-shRNA knock-down construct, KD target sequence against ATIC”, the IL-10 sparing result is on record as “✓”.

Take “CTTGTGTGCCAGTGGATGC: Ad-shRNA knock-down construct, KD target sequence against BRS3”: the IL-10 sparing entry is listed as “✓”.

As to “GGTGTCTTACTGCTGACTC: Ad-shRNA knock-down construct, target sequence against TNFRSF11A (Table 3 only, no SEQ ID NO) (the letters are possibly those of the target site)”, the IL-10 sparing result is listed as “✓”.

As for “GTTCTGCTGTGCATCTGCC: Ad-shRNA knock-down construct, KD target sequence against OPRL1”, the IL-10 sparing entry was “✓”.

For the substance “TATGCTGTAGGCTGCCTGC: Ad-shRNA knock-down construct, KD target sequence against PIK3CB (listed as Homo sapiens)”, the IL-10 sparing entry is given as “✓”.

On to “TGTCTACACCACTGCTGCC: Ad-shRNA knock-down construct, KD target sequence against RYR1 (the letters are possibly those of the target site; listed as Homo sapiens)”, for which the IL-10 sparing result is on record as “✓”.
